Test results published in ChEMBL document CHEMBL1177848, “Synthesis of novel 6,6a,7,8-tetrahydro-5H-naphtho[1,2-e]pyrimido[4,5-b][1,4]diazepines under microwave irradiation as potential anti-tumor agents” (2010).
Activity calls are given as the source filed them. The calls are words filed in the database; no cut-off is given here.

Assays:
MDA-MB-468 [1] = assay: Growth inhibition of human MDA-MB-468 cells at 1 uM after 48 hrs by sulforhodamine B assay; format: functional, cell-based
SF-295 [2] = assay: Growth inhibition of human SF295 cells at 1 uM after 48 hrs by sulforhodamine B assay; format: functional, cell-based
SW-620 [3] = assay: Growth inhibition of human SW620 cells at 1 uM after 48 hrs by sulforhodamine B assay; format: functional, cell-based
NCI/ADR-RES = assay: Growth inhibition of human NCI/ADR-RES cells after 48 hrs by sulforhodamine B assay; format: functional
MCF7 [4] = assay: Growth inhibition of human MCF7 cells at 1 uM after 48 hrs by sulforhodamine B assay; format: functional, cell-based
MCF7 [5] = assay: Growth inhibition of human MCF7 cells after 48 hrs by sulforhodamine B assay; format: functional; details: MCF7, 48 h
IGROV-1 [6] = assay: Growth inhibition of human IGROV1 cells at 1 uM after 48 hrs by sulforhodamine B assay; format: functional, cell-based
U-251 = assay: Growth inhibition of human U251 cells at 1 uM after 48 hrs by sulforhodamine B assay; format: functional, cell-based
SF-268 = assay: Growth inhibition of human SF268 cells at 1 uM after 48 hrs by sulforhodamine B assay; format: functional, cell-based
CCRF-CEM = assay: Growth inhibition of human CCRF-CEM cells at 1 uM after 48 hrs by sulforhodamine B assay; format: functional, cell-based
NCI-H226 = assay: Growth inhibition of human NCI-H226 cells after 48 hrs by sulforhodamine B assay; format: functional; details: NCI-H226, 48 h
RXF 393 [7] = assay: Growth inhibition of human RXF393 cells at 1 uM after 48 hrs by sulforhodamine B assay; format: functional, cell-based
SK-MEL-5 [8] = assay: Growth inhibition of human SK-MEL-5 cells after 48 hrs by sulforhodamine B assay; format: functional; details: SK-MEL-5, 48 h
HT-29 = assay: Growth inhibition of human HT-29 cells after 48 hrs by sulforhodamine B assay; format: functional; details: HT-29, 48 h
RPMI-8226 [9] = assay: Growth inhibition of human RPMI8226 cells after 48 hrs by sulforhodamine B assay; format: functional; details: RPMI-8226, 48 h
MDA-MB-231 = assay: Growth inhibition of human MDA-MB-231 cells at 1 uM after 48 hrs by sulforhodamine B assay; format: functional, cell-based
T47D = assay: Growth inhibition of human T47D cells after 48 hrs by sulforhodamine B assay; format: functional
IGROV-1 [10] = assay: Growth inhibition of human IGROV1 cells after 48 hrs by sulforhodamine B assay; format: functional; details: IGROV-1, 48 h
SK-MEL-5 [11] = assay: Growth inhibition of human SK-MEL-5 cells at 1 uM after 48 hrs by sulforhodamine B assay; format: functional, cell-based
UACC-257 = assay: Growth inhibition of human UACC257 cells at 1 uM after 48 hrs by sulforhodamine B assay; format: functional, cell-based
SW-620 [12] = assay: Growth inhibition of human SW620 cells after 48 hrs by sulforhodamine B assay; format: functional; details: SW-620, 48 h
NCI-H522 = assay: Growth inhibition of human NCI-H522 cells after 48 hrs by sulforhodamine B assay; format: functional; details: NCI-H522, 48 h
SF-295 [13] = assay: Growth inhibition of human SF295 cells after 48 hrs by sulforhodamine B assay; format: functional; details: SF-295, 48 h
A498 = assay: Growth inhibition of human A498 cells after 48 hrs by sulforhodamine B assay; format: functional; details: A498, 48 h
SNB-75 = assay: Growth inhibition of human SNB75 cells at 1 uM after 48 hrs by sulforhodamine B assay; format: functional, cell-based
LOX IMVI [14] = assay: Growth inhibition of human LOXIMVI cells at 1 uM after 48 hrs by sulforhodamine B assay; format: functional, cell-based
NCI-H460 = assay: Growth inhibition of human NCI-H460 cells at 1 uM after 48 hrs by sulforhodamine B assay; format: functional, cell-based
BT-549 = assay: Growth inhibition of human BT549 cells at 1 uM after 48 hrs by sulforhodamine B assay; format: functional, cell-based
COLO 205 [15] = assay: Growth inhibition of human COLO205 cells at 1 uM after 48 hrs by sulforhodamine B assay; format: functional, cell-based
SR = assay: Growth inhibition of human SR cells at 1 uM after 48 hrs by sulforhodamine B assay; format: functional, cell-based
A549 = assay: Growth inhibition of human A549 cells at 1 uM after 48 hrs by sulforhodamine B assay; format: functional, cell-based
RXF 393 [16] = assay: Growth inhibition of human RXF393 cells after 48 hrs by sulforhodamine B assay; format: functional; details: RXF 393, 48 h
SN12C = assay: Growth inhibition of human SN12C cells at 1 uM after 48 hrs by sulforhodamine B assay; format: functional, cell-based
LOX IMVI [17] = assay: Growth inhibition of human LOXIMVI cells after 48 hrs by sulforhodamine B assay; format: functional
UO-31 = assay: Growth inhibition of human UO31 cells after 48 hrs by sulforhodamine B assay; format: functional; details: UO-31, 48 h
HCC 2998 = assay: Growth inhibition of human HCC2998 cells at 1 uM after 48 hrs by sulforhodamine B assay; format: functional, cell-based
NCI-H23 = assay: Growth inhibition of human NCI-H23 cells at 1 uM after 48 hrs by sulforhodamine B assay; format: functional, cell-based
COLO 205 [18] = assay: Growth inhibition of human COLO205 cells after 48 hrs by sulforhodamine B assay; format: functional; details: COLO 205, 48 h
HCT-15 = assay: Growth inhibition of human HCT15 cells at 1 uM after 48 hrs by sulforhodamine B assay; format: functional, cell-based
KM12 = assay: Growth inhibition of human KM12 cells at 1 uM after 48 hrs by sulforhodamine B assay; format: functional, cell-based
PC-3 = assay: Growth inhibition of human PC3 cells at 1 uM after 48 hrs by sulforhodamine B assay; format: functional, cell-based
SF-539 = assay: Growth inhibition of human SF539 cells at 1 uM after 48 hrs by sulforhodamine B assay; format: functional, cell-based
OVCAR-8 = assay: Growth inhibition of human OVCAR8 cells at 1 uM after 48 hrs by sulforhodamine B assay; format: functional, cell-based
UACC-62 = assay: Growth inhibition of human UACC62 cells after 48 hrs by sulforhodamine B assay; format: functional; details: UACC-62, 48 h
RPMI-8226 [19] = assay: Growth inhibition of human RPMI8226 cells at 1 uM after 48 hrs by sulforhodamine B assay; format: functional, cell-based
MDA-MB-468 [20] = assay: Growth inhibition of human MDA-MB-468 cells after 48 hrs by sulforhodamine B assay; format: functional; details: MDA-MB-468, 48 h
TK-10 = assay: Growth inhibition of human TK10 cells at 1 uM after 48 hrs by sulforhodamine B assay; format: functional, cell-based
[21] = read-out: LC50 (the source's name)

Nc1nc(N)c2c(n1)NC(c1ccc(F)cc1)C1CCc3ccccc3C1=N2 (stereo not given)
growth inhibition (GI) (MDA-MB-468 [1]): inactive
growth inhibition (GI) (SF-295 [2]): inactive
growth inhibition (GI) (SW-620 [3]): inactive
GI50 (NCI/ADR-RES): 3.19 µM
LC50 (concentration killing 50% of cells) (NCI/ADR-RES): 39.4 µM
growth inhibition (GI) (MCF7 [4]): inactive
GI50 (MCF7 [5]): 2.67 µM
LC50 (MCF7 [5]): 36.3 µM
growth inhibition (GI) (IGROV-1 [6]): inactive
growth inhibition (GI) (U-251): inactive
growth inhibition (GI) (SF-268): inactive
growth inhibition (GI) (CCRF-CEM): inactive
GI50 (NCI-H226): 5.97 µM
LC50 (NCI-H226): 74.4 µM
growth inhibition (GI) (RXF 393 [7]): inactive
GI50 (SK-MEL-5 [8]): 0.609 µM
LC50 (SK-MEL-5 [8]): 6.03 µM
GI50 (HT-29): 3.84 µM
CC50 (HT-29; [21]): 38.7 µM
GI50 (RPMI-8226 [9]): 1.81 µM
LC50 (RPMI-8226 [9]): 62.8 µM
growth inhibition (GI) (MDA-MB-231): inactive
GI50 (T47D): 3.86 µM
CC50 (T47D; [21]): 62.9 µM
GI50 (IGROV-1 [10]): 7.79 µM
LC50 (concentration killing 50% of cells) (IGROV-1 [10]): 63.9 µM
growth inhibition (GI) (SK-MEL-5 [11]): inactive
growth inhibition (GI) (UACC-257): inactive
GI50 (SW-620 [12]): 4.87 µM
LC50 (SW-620 [12]): 42.9 µM
GI50 (NCI-H522): 5.66 µM
LC50 (NCI-H522): 58 µM
GI50 (SF-295 [13]): 8.64 µM
LC50 (50% lethal concentration) (SF-295 [13]): 59.7 µM
GI50 (A498): 2.87 µM
LC50 (A498): 30.6 µM
growth inhibition (GI) (SNB-75): inactive
growth inhibition (GI) (LOX IMVI [14]): inactive
growth inhibition (GI) (NCI-H460): inactive
growth inhibition (GI) (BT-549): inactive
growth inhibition (GI) (COLO 205 [15]): inactive
growth inhibition (GI) (SR): inactive
growth inhibition (GI) (A549): inactive
GI50 (RXF 393 [16]): 5.48 µM
LC50 (50% lethal concentration) (RXF 393 [16]): 60.4 µM
growth inhibition (GI) (SN12C): inactive
GI50 (LOX IMVI [17]): 3.98 µM
LC50 (LOX IMVI [17]): 43 µM
GI50 (UO-31): 3.34 µM
LC50 (UO-31): 55.3 µM
growth inhibition (GI) (HCC 2998): inactive
growth inhibition (GI) (NCI-H23): inactive
GI50 (COLO 205 [18]): 1.62 µM
LC50 (50% lethal concentration) (COLO 205 [18]): 80.7 µM
growth inhibition (GI) (HCT-15): inactive
growth inhibition (GI) (KM12): inactive
growth inhibition (GI) (PC-3): inactive
growth inhibition (GI) (SF-539): inactive
growth inhibition (GI) (OVCAR-8): inactive
GI50 (UACC-62): 3.76 µM
LC50 (UACC-62): 42.1 µM
growth inhibition (GI) (RPMI-8226 [19]): inactive
GI50 (MDA-MB-468 [20]): 1.43 µM
CC50 (MDA-MB-468 [20]; [21]): 33 µM
growth inhibition (GI) (TK-10): inactive
